Key:
rats [1] = experiment: Locomotor activity test; format: in vivo, Male Sprague Dawley rats
Method: (§1) Male Sprague Dawley rats 200-300 g (Charles River, Margate, U.K.) were housed in group of five per cage under a 12 h light/dark cycle with food and water available ad libitum. Each experiment was carried out with groups of at minimum 7 rats. All procedures in this study were performed in accordance with the Home Office Animals (Scientific Procedures) Act 1986 and accordingly with our Project License, after the experiment, animals were sacrificed by schedule 1 method.
The spontaneous locomotor activity of rats in a novel environment was monitored for 30 min in a 35×20 cm Perspex chamber. The cage was equipped with two series photocells located at 2 and 15 cm above the floor (San Diego Instruments, CA, USA). To measure drug-induced decrease locomotion such as morphine and gabapentin, at a pre-defined time post drug administration, each animal was placed in the centre of the cage. To measure drug-induced increase in locomotion such as phencyclidine (PCP) rats were placed in the cage at least 30 min before recording. total activity (ambulation and rearing) was monitored every 5 min for 30 min.
(§2) In the locomotor activity task, total counts are the sum of horizontal and vertical movements (photo beam breaks) in 30 minutes recording. For PCP vertical and horizontal activity are analysed separately. Data were expressed as the arithmetic mean ±SEM and analysed by ANOVA. In the beam walking test, the time to cross the beam (seconds) and the number of foot slips were expressed as mean ±SEM and analysed by ANOVA and Mann Whitney U test, respectively.

[2] = clinical literature; cited from earlier work
rats [3] = experiment: Beam walking test; format: in vivo, Male Sprague Dawley rats
Method: as §1
The Beam walking apparatus consists of a 1.5 m long beam with a 2.5×2.5 cm square cross section, elevated 75 cm above the floor. The test was performed in dim light conditions (18 lux). A light source (520 lux) was placed at the start-end of the beam while a dark box at the other side (Feeney D M et al, Amphetamine, Haloperidol, and experience interact to affect rate of recovery after motor cortex injury, Science 217, 1982). Rats were habituated to the dim light condition for at least 1 hour before the beginning of the training sessions. Rats were trained to cross the beam over 2 days, twice a day. The first day, rodents were trained to cross starting from last quarter and half of the beam until the dark box, in the first and second session, respectively. The following day rodents were trained to cross the entire length of the beam twice. At least 2 hours were left between each daily session. On the day of test a baseline recording was registered before compound administration and rats were selected based on their ability to cross the beam with no major impairments. Therefore, only rodents that crossed the beam in less than 10 seconds and showing two or less foot slips were used for the assessment of drug-induced motor impairments. Then rats were tested for their ability to cross the beam at various time points after drug injection. The time taken to cross and the number of foot slips produced while a rat was crossing the beam were counted. […] No movement or freezing behaviours were also scored with the maximum value.
as §2

[4] = 1 and 10 mg/kg ip, 1 hr post injection

## NCC1(CC(=O)O)CCCCC1 [Gabapentin]
Rats [1]; 100 mg/kg PO (highest dose), one hour post dose
  decrease in locomotor activity (of vehicle-treated group): 27%
Rats [1]; 100 mg/kg in rats
  locomotor activity, effect: small (albeit statistically significant) decrease
Rats [1]; 10, 30 and 100 mg/kg PO, one hour post dose
  locomotor activity, effect across doses: decreased significantly the locomotor activity of rats at the highest dose only
Rats [1]; gabapentin highest dose 100 mg/kg PO, one hour post dose
  total counts in 30 min: 262±25 counts
[2]
  adverse events in humans: dizziness and somnolence
Rats [3]; 100 mg/kg in rats
  number of foot slips, effect: robust increase
Rats [3]; 30, 100 and 300 mg/kg PO, up to 6 hrs, p<0.05
  time to cross the beam, effect: only at 3 and 4 hour post administration the highest dose significantly increase the time to cross
Rats [3]; PO
  duration of effect on foot slips (lasting till): 4 h
  time of peak effect on foot slips: 2 h
Rats [3]; PO, 30, 100 and 300 mg/kg tested, dose dependent
  lowest dose increasing number of foot slips: 100 mg/kg
Rats [3]; PO, 2 hours post dose
  rats that fell off the beam: 25%
Rats [3]; PO, 3 hours post dose
  rats that fell off the beam: 25%
Rats [3]; PO, dose not stated, 1 hour post dose, water treated 0.6±0.4
  number of foot slips: 1.5±0.5
Rats [3]; PO, dose not stated, 2 hours post dose, vehicle 0.2±0.2, p<0.01
  number of foot slips (peak effect): 2.9±0.5

## CN1CC[C@]23c4c5ccc(O)c4O[C@H]2[C@@H](O)C=C[C@H]3[C@H]1C5.O=S(=O)(O)O [Morphine sulphate]
Rats [1]; 10 mg/kg SC, 30 min post dose, vehicle 424±23, p<0.01
  total counts (horizontal + vertical) in 30 min: 28±6 counts
Rats [1]; morphine 3 mg/kg, comparator in gabapentin study
  total counts in 30 min: 138±26 counts
[2]
  adverse events in humans: somnolence, sedation and addiction
Rats [3]; 3 mg/kg SC, any time point (30 min, 1, 2, 3 h)
  locomotion in the beam walking: did not modify the locomotion
Rats [3]; 10 mg/kg SC, 30 min post dose, controls 4.1±0.7, significant
  time to cross the beam: 12.6 ± 0.7 s
Rats [3]; 10 mg/kg SC, 30 minutes post dose, vehicle 0.1±0.1, not statistically different
  number of foot slips: 1.0±0.6
Rats [3]; 10 mg/kg SC, 1 hr post dose, vehicle 0.1±0.1, not statistically different
  number of foot slips: 1.0±0.6
Rats [3]; 3 and 10 mg/kg SC
  rats falling off the beam: No rats fell off the beam
Rats [3]; SC
  MED (minimal effective dose) in beam walking: 10 mg/kg

## c1ccc(C2(N3CCCCC3)CCCCC2)cc1 [PCP, phencyclidine]
Rats [1]; 10 mg/kg ip
  observed signs: signs of ataxia
Rats [1]; 10 mg/kg, standard protocol for drug-induced decrease in movement, vehicle 186±17, p<0.01, data not shown
  vertical activity (rearing): 30±9
Rats [1]; [4]
  total activity (vertical+horizontal) vs vehicle-treated group: did not change significantly
  vertical movement: only the lower dose significantly increased the vertical movement
Rats [1]; 1 and 10 mg/kg ip, 1 hr post injection, p<0.05
  horizontal activity: increased the horizontal activity in a dose dependent manner
[2]
  adverse events in humans: induce ataxia
Rats [3]; 1 mg/kg ip, 2 hours post dose, p<0.05
  number of foot slips, effect: slight but significant increase
Rats [3]; 10 mg/kg ip, 30 min post dose
  rodents that could not be placed on the beam (lack of paw coordination): 100%
Rats [3]; 10 mg/kg ip, 1 hour post dose
  rodents that could not be placed on the beam (lack of paw coordination): 100%
Rats [3]; 10 mg/kg ip, 2 hours post dose
  animals that did cross the beam: 80%
Rats [3]; 10 mg/kg ip, 2 hours post dose, animals that crossed
  number of foot slips: ≥ 5
Rats [3]; 10 mg/kg ip, 2 hours post dose, p<0.01
  time taken to cross the beam vs controls: significantly different from controls
Rats [3]; 10 mg/kg ip, 4 hrs post dose
  recovery: almost all rats recovered
Rats [3]; 0.1-1-10 mg/kg ip
  time taken to cross the beam, effect across doses: increased the time taken to cross the beam at the higher dose only
Rats [3]; lower dose (0.1 mg/kg ip)
  number of foot slips, effect: no effect

From patent US20080294071A1, “Assay Method” (priority 2004, published 2008)
